Legend:
Type in all cases: in vivo
[1] = system: Colletotrichum coccodes; assay: Field assessment of Colletotrichum coccodes (COLLCA) in tomato; conditions: SC
Description: Field Assessment of Colletotrichum Coccodes (COLLCA) in Tomato:
A fungicidal treatment containing Compound I, applied in an SC formulation (MSO built-in) and tank mixed with an adjuvant (Agnique BP-420, 50% w/w at 0.2% v/v or Adsee C80W 80%), was sprayed on tomato plants (LYPES, Roma VS Saladette type variety) at growth stage 12 in vegetative growth at rates of 50, 75, 100, and 150 grams of active ingredient per hectare (g ai/ha). The experimental plots were run with natural infestation of the anthracnose pathogen and supplemented with additional inoculum about one day after the 1st application. The treatment was part of an experimental trial designed as a randomized complete block (RCB) with four replications and a plot of approximately 6.67×30 ft. Compound I was applied at water volume of 40 gal/acre, using a backpack sprayer (carbon dioxide (CO2), 8004VS FF nozzles) and pressurized at 38 psi.
Percent leaf severity was assessed three times during the trial (0-23 days after application 1). Area under the disease progress curve (AUDPC) was calculated for each plot using the recorded leaf severity data. Relative AUDPC (% control based on AUDPC) was calculated as percent of the untreated control.

[2] = system: Colletotrichum capsici; assay: Field assessment of Colletotrichum capsici (COLLCA) on hot peppers, 4 day curative; conditions: 5% EC + Trycol, hot pepper
Description: (§1) Field Assessment of Colletotrichum capsici (COLLCA) on Hot Peppers:
For the 4 day curative trial, a fungicidal treatment containing a 5% EC formulation of compound I plus an adjuvant (Trycol, 50% w/w at 0.2% v/v), was sprayed on hot pepper plants (CPSAN) twice, the first application at the flowering and fruiting stage 59 days after planting, with the second application after 7 days. Formulations of compound I were applied at rates of 50, 100, 150 and 200 grams of active ingredient per hectare (g ai/ha). The experimental plots were inoculated with the anthracnose pathogen 4 days before the first application (curative). The treatment was part of an experimental trial designed as a randomized complete block with four replications and a plot of approximately 2×1 m, with formulations of compound I being applied at water volume of 1200 L/ha.
Disease severity was assessed as the percent fruit area diseased per plant (6 plants per plot randomly). Anthracnose infection was assessed four times, 7 days after application A (DAAA), plus 7, 14 and 21 DAAB. Area under the disease progress curve (AUDPC) was calculated for each plot using the sets of recorded visual infection data. Relative AUDPC (% control based on AUDPC) was calculated as percent of the nontreated control.

[3] = system: Colletotrichum capsici; assay: Field assessment of Colletotrichum capsici (COLLCA) on hot peppers, 2 day protectant; conditions: 5% EC + Trycol, hot pepper
Procedure: as §1
Assessment of compound I of COLLCA on hot peppers, in both protectant and curative fashion, was performed in two separate field trials. For the 2 day protectant test, a fungicidal treatment containing a 5% EC formulation of compound I plus an adjuvant (Trycol, 50% w/w at 0.2% v/v), was sprayed on hot pepper plants (CPSAN) three times, the first application at the flowering and fruiting stage 43 days after planting, with the following applications in 7 day intervals. Formulations of compound I were applied at rates of 50, 100, and 150 grams of active ingredient per hectare (g ai/ha). The experimental plots were inoculated with the anthracnose pathogen 2 days after the first application. The treatment was part of an experimental trial designed as a randomized complete block with four replications and a plot of approximately 2×1 m, with formulations of compound I being applied at water volume of 1000 L/ha.
Disease severity was assessed as the percent fruit area diseased per plant (6 plants per plot randomly). Anthracnose infection was assessed four times, 7 days after application A (DAAA), 7 DAAB, plus 7 and 14 DAAC. Area under the disease progress curve (AUDPC) was calculated for each plot using the sets of recorded visual infection data. Relative AUDPC (% control based on AUDPC) was calculated as percent of the nontreated control.

[4] = system: Stagonosporopsis cucurbitacearum; assay: Field assessment of Stagonosporopsis cucurbitacearum (DIDYBR) on watermelon; conditions: 10% SC; for Percent control based on AUDPC, DIDYBR, adjuvant II: Agnique BP420 (50% w/w at 0.3% v/v)
Description: Field Assessment of Stagonosporopsis Cucurbitacearum (DIDYBR) on Watermelon:
A 10% SC formulation of compound I was tanked mixed with four different adjuvants: Agnique BP420 (50% w/w at 0.3% v/v); Trycol (50% w/w at 0.1% v/v); Ethomeen T18H (50% w/w at 0.2% v/v); and Phase II (50% w/w at 0.2% v/v). A fungicidal treatment containing formulations of compound I, either alone or with adjuvants, was sprayed on watermelon plants four times, the first application approximately 2 months after planting, with the following three applications in 7-10 day intervals. Formulations of compound I were applied at rates of 50, 100, 150 and 200 grams of active ingredient per hectare (g ai/ha). The experimental plots were inoculated with the gummy stem blight pathogen 2 days after the first application. The treatment was part of an experimental trial designed as a randomized complete block with four replications and a plot of approximately 2.5×1.4 m. Formulations of compound I were applied at water volume of 675 L/ha.
Disease severity was recorded as the length of stem lesion and as percent area diseased foliage (3 random plants per plot). Watermelon gummy stem blight infection was assessed twice, the first at 6 days after the first application (6 DAAA), followed by 19 DAAD. Area under the disease progress curve (AUDPC) was calculated for each plot using the sets of recorded severity data. Relative AUDPC (% control based on AUDPC) was calculated as percent of the nontreated control.

## COc1ccnc(C(=O)N[C@@H](C)C(=O)O[C@@H](C)C(c2ccc(F)cc2)c2ccc(F)cc2)c1OC(C)=O [Compound I, (S)-1,1-bis(4-fluorophenyl)propan-2-yl (3-acetoxy-4-methoxypicolinoyl)-L-alaninate]
[1]; Compound I 50 g/ha, Agnique BP420, 200 mL/ha
  Percent Control of COLLCA (AUDPC): 67%
[1]; Compound I 50 g/ha, MSO, 100 g/ha
  Percent Control of COLLCA (AUDPC): 46.0%
[1]; Compound I 75 g/ha, Agnique BP420, 2300 mL/ha
  Percent Control of COLLCA (AUDPC): 91.1%
[1]; Compound I 75 g/ha, MSO, 150 g/ha
  Percent Control of COLLCA (AUDPC): 75.5%
[1]; Compound I 100 g/ha, Adsee C80W 80%, 250 g/ha
  Percent Control of COLLCA (AUDPC): 57.3%
[1]; Compound I 100 g/ha, Agnique BP420, 400 mL/ha
  Percent Control of COLLCA (AUDPC): 91.0%
[1]; Compound I 100 g/ha, MSO, 200 g/ha
  Percent Control of COLLCA (AUDPC): 92.6%
[1]; Compound I 150 g/ha, Agnique BP420, 600 mL/ha
  Percent Control of COLLCA (AUDPC): 95.7%
[1]; Compound I 150 g/ha, MSO, 300 g/ha
  Percent Control of COLLCA (AUDPC): 95.3%
[2]; 50 g ai/ha
  Percent control based on AUDPC, COLLCA 4 DC: C (26-50)
[2]; 100 g ai/ha
  Percent control based on AUDPC, COLLCA 4 DC: B (51-75)
[2]; 150 g ai/ha
  Percent control based on AUDPC, COLLCA 4 DC: B (51-75)
[2]; 200 g ai/ha
  Percent control based on AUDPC, COLLCA 4 DC: B (51-75)
[3]; 50 g ai/ha
  Percent control based on AUDPC, COLLCA 2 DP: A (76-100)
[3]; 100 g ai/ha
  Percent control based on AUDPC, COLLCA 2 DP: A (76-100)
[3]; 150 g ai/ha
  Percent control based on AUDPC, COLLCA 2 DP: A (76-100)
[4]; 50 g ai/ha
  Percent control based on AUDPC, DIDYBR, adjuvant II: A (76-100)
[4]; 100 g ai/ha
  Percent control based on AUDPC, DIDYBR, adjuvant II: A (76-100)
[4]; 100 g ai/ha, Ethomeen T18H (50% w/w at 0.2% v/v)
  Percent control based on AUDPC, DIDYBR, adjuvant IV: B (51-75)
[4]; 100 g ai/ha, Phase II (50% w/w at 0.2% v/v)
  Percent control based on AUDPC, DIDYBR, adjuvant V: B (51-75)
[4]; 100 g ai/ha, Trycol (50% w/w at 0.1% v/v)
  Percent control based on AUDPC, DIDYBR, adjuvant III: B (51-75)
[4]; 100 g ai/ha, no adjuvant
  Percent control based on AUDPC, DIDYBR, adjuvant I: B (51-75)
[4]; 150 g ai/ha
  Percent control based on AUDPC, DIDYBR, adjuvant II: A (76-100)
[4]; 200 g ai/ha
  Percent control based on AUDPC, DIDYBR, adjuvant II: A (76-100)
